# US12233088B2 (Alexion Pharmaceuticals, Inc., priority 2017, dated 2025)
# Read-outs that look alike come from different tables or passages of the source.
# Key:
# [1] = system: patients with Wilson's disease
# Protocol: This open-label, phase 2 study was performed at 11 hospitals in the USA and in Europe. […] Investigators, other hospital personnel, and patients were aware of the identity of the treatment. […] This study is registered with ClinicalTrials.gov, number NCT02273596.
# The open-label, phase 2 study was performed at 11 hospitals. Eligible patients were aged 18 years or older, with a diagnosis of Wilson's disease established by a Leipzig score of 4 or more. […] Patients with decompensated hepatic cirrhosis, a MELD score greater than 11, or a modified Nazer score (revised King's score) greater than 6 were excluded.
# Investigators, other hospital personnel, patients, and the study sponsor were aware of the identity of the treatment.
# Up-titration was stepwise, with each increase restricted to double the previous dose, and not permitted if NCC was within or below the normal range.
# Using values for plasma total copper and ceruloplasmin concentrations, NCC was calculated by subtracting the amount of copper bound to ceruloplasmin from total copper concentrations (determined with inductively coupled plasma mass spectrometry). […] The correction method used the average molar ratio of copper to molybdenum in the tripartite complex, which was determined using the relationship between NCC and plasma molybdenum concentrations and confirmed by two independent methods. The NCC correction method was validated using random selections of test and validation samples.
# The primary endpoint was change in NCCcorrected from baseline to 24 weeks, which was measured as NCC concentrations corrected for copper contained in tetrathiomolybdate-copper-albumin complexes (NCCcorrected).
# Secondary endpoints were safety and tolerability, change in and time to normalisation of NCCcorrected level clinical neurological disease, liver function, clinical symptoms, health-related quality of life (HRQoL), psychiatric status, and pharmacokinetics and exchangeable copper, speciation profiling, and urinary copper. Psychiatric status, pharmacokinetics data, and copper endpoints were also measured. Neurological disease was assessed as patient-reported disability, measured with UWDRS part II, and also as trained-rater-assessed neurological status, measured with UWDRS part III. Liver synthetic function was assessed by monitoring of international normalised ratio (INR) and albumin concentrations. Additionally, changes in liver function were assessed by modified Nazer score (based on bilirubin, INR, AST, albumin, and white blood cell count) and, in a post-hoc analysis, by the MELD score (based on bilirubin, creatinine, INR, and cause of liver disease). HRQoL was measured with the EuroQoL 5 Dimensions Visual Analogue Scale (EQ VAS).
# Adverse event (AE) data was collected for onset, duration, seriousness, and severity, with relation to study medication determined by the investigator.
# Since the aim of the study was to present primarily descriptive statistics, no formal power calculations were performed. Changes in copper concentrations and scores were summarised over time with descriptive statistics. Mixed-model repeated-measures analysis with a fixed-effect term were applied for clinic visit, and a spatial power covariance structure was applied to model the within-participant errors. A spatial power covariance structure was selected because it assumes that the within-participant correlation decays as the time distance increases between repeated measures. SAS (version 9.3) was utilised to provide change in least-squares mean over time, and the associated 95% CIs, SE, and two-sided p values.
# [2] = system: Wilson disease patients with and without cirrhosis
# Protocol: Mortality in Wilson disease is usually secondary to decompensated hepatic cirrhosis and liver failure; therefore, liver function is an important factor in determining appropriate treatment regimens. The outcome of patients with and without cirrhosis using in the patient pool of Example 1, supplemented with week 48 data generated in the 3-year extension phase of the initial trial, was analyzed.
# For the analyses described in this example, patients were characterized as having cirrhosis based on medical history (biopsy or imaging) or based on estimates of AST to Platelet Ratio Index (APRI) (AST refers to aspartate aminotransferase). Summary statistics were calculated for Baseline demographics, NCCcorr levels, ALT levels, MELD and modified Nazer scores, Albumin concentration, International normalized ratio (INR), Disability and neurological status using the unified Wilson's disease rating scale, and adverse events (AEs). […] Patient flow for the extension study is depicted in FIG. 12.
# [3] = baseline to week 24, least-squares mean, mixed-model repeated measures
# [4] = baseline to week 24, mixed-model repeated measures
# [5] = mixed-model repeated measures using all visits up to week 24
# [6] = core study, patients without cirrhosis
# [7] = extension phase, with cirrhosis
compound,measurement,setting,value
"C[N+](C)(C)CCO.C[N+](C)(C)CCO.[SH-].[SH-].[S]=[Mo]=[S] [WTX101, bis-choline tetrathiomolybdate]","Patients reporting at least one treatment-emergent adverse event, Number of Patients (%)","[1]; 24 weeks, N=28",17 (61%)
same,"adverse event ALT increased, Number of Patients (%)","[1]; 24 weeks, N=28",8 (29%)
same,"adverse event AST increased, Number of Patients (%)","[1]; 24 weeks, N=28",7 (25%)
same,"adverse event Blood alkaline phosphatase increased, Number of Patients (%)","[1]; 24 weeks, N=28",3 (11%)
same,"adverse event Dry Skin, Number of Patients (%)","[1]; 24 weeks, N=28",2 (7%)
same,"adverse event GGT increased, Number of Patients (%)","[1]; 24 weeks, N=28",8 (29%)
same,"adverse event Headache, Number of Patients (%)","[1]; 24 weeks, N=28",2 (7%)
same,"adverse event Hepatic enzyme increased, Number of Patients (%)","[1]; 24 weeks, N=28",4 (14%)
same,"adverse event Nausea, Number of Patients (%)","[1]; 24 weeks, N=28",2 (7%)
same,"adverse event Tremor, Number of Patients (%)","[1]; 24 weeks, N=28",2 (7%)
same,Relationship to the study drug as deemed by the investigator: ALT increased,"[1]; SAE, baseline to week 24",Possible
same,Relationship to the study drug as deemed by the investigator: Abnormal behavior,"[1]; SAE, baseline to week 24",Unrelated
same,Relationship to the study drug as deemed by the investigator: Adjustment disorder,"[1]; SAE, baseline to week 24",Unrelated
same,Relationship to the study drug as deemed by the investigator: Affective disorder,"[1]; SAE, baseline to week 24",Unrelated
same,Relationship to the study drug as deemed by the investigator: Agranulocytosis,"[1]; SAE, baseline to week 24",Probable
same,Relationship to the study drug as deemed by the investigator: Gait disturbance,"[1]; SAE, baseline to week 24",Unlikely
same,Relationship to the study drug as deemed by the investigator: Hepatic enzyme increased (severe ALT/AST elevation),"[1]; SAE, baseline to week 24",Probable
same,Relationship to the study drug as deemed by the investigator: Mania,"[1]; SAE, baseline to week 24",Unlikely
same,Relationship to the study drug as deemed by the investigator: Personality disorder,"[1]; SAE, baseline to week 24",Unlikely
same,Relationship to the study drug as deemed by the investigator: Psychotic disorder,"[1]; SAE, baseline to week 24",Unrelated
same,Relationship to the study drug as deemed by the investigator: Decline in neurological functioning,"[1]; SAE, baseline to week 24, likely due to disease progression",Possible
same,week by which mean NCCcorrected was below the upper limit of normal,[1]; ULN 2.3 μmol/L,≤ 12 week
same,time to normalisation of liver function tests,[1]; after dose adjustments or treatment interruption,1-2 weeks
same,time of occurrence of liver enzyme increases,"[1]; after initiation, at 30 mg/day or higher",4-10 weeks
same,"patients who achieved or maintained normalised NCCcorrected, n (%)","[1]; at 24 weeks, of 28 patients",16 (57%)
same,"patients with at least a 25% reduction from baseline NCCcorrected, n (%)","[1]; at 24 weeks, of 28 patients",4 (14%)
same,patients meeting the criteria for treatment success,"[1]; at 24 weeks, of 28 patients, normalised NCCcorrected (≤2.3 μmol/L) or ≥25% reduction",71%
same,reduction of mean NCCcorrected,[1]; baseline to week 24,72%
same,UWDRS part II score Change from baseline,[1]; [3],−3.7
same,UWDRS part III score Change from baseline,[1]; [3],−8.7
same,Albumin Change from baseline,[1]; [4],2.3 g/L
same,Bilirubin Change from baseline,[1]; [4],0.02 mg/dL
same,EQVAS Change from baseline,[1]; [4],9.2
same,INR Change from baseline,[1]; [4],−0.05
same,Modified Nazer score Change from baseline,[1]; [4],−0.4
same,Platelets Change from baseline,[1]; [4],2.3 1 × 10^9/L
same,MELD score Change from baseline,"[1]; baseline to week 24, post-hoc, mixed-model repeated measures",−0.5
same,increase of median peak ALT from baseline,[1]; in the 11 patients with liver enzyme increases,7.2 times
same,median peak ALT,"[1]; in the 11 patients with liver enzyme increases, range 101-1341",197 U/L
same,ALT Change from baseline,[1]; [5],48.4 U/L
same,AST Change from baseline,[1]; [5],3.8 U/L
same,GGT Change from baseline,[1]; [5],60.7 U/L
same,most pronounced ALT signal,"[1]; one patient, 30 mg/day",1341 U/L
same,second highest ALT signal,"[1]; one patient, 120 mg/day",615 U/L
same,"patients with UWDRS part II score improved by at least one point, n (%)",[1]; week 24,12 (57%)
same,"patients with UWDRS part III score improved by 4 or more points, n (%)",[1]; week 24,14 (67%)
same,Modified Nazer score Week 24 Mean (SD),"[1]; week 24, n=21, baseline 1.4 (1.0)",1.1 (0.6)
same,EQVAS Week 24 Mean (SD),"[1]; week 24, n=23, baseline 65.9 (23.0)",74.3 (16.9)
same,INR Week 24 Mean (SD),"[1]; week 24, observed cases, n=22, baseline 1.11 (0.16)",1.06 (0.08)
same,Bilirubin Week 24 Mean (SD),"[1]; week 24, observed cases, n=23, baseline 0.51 (0.29)",0.49 (0.27) mg/dL
same,NCCcorrected Week 24 Mean (SD),"[1]; week 24, observed cases, n=23, baseline 3.6 (2.1)",0.9 (1.0) μmol/L
same,AST Week 24 Mean (SD),"[1]; week 24, observed cases, n=23, baseline 36.6 (27.6)",28.2 (9.9) U/L
same,Albumin Week 24 Mean (SD),"[1]; week 24, observed cases, n=23, baseline 39.2 (5.4)",40.9 (3.2) g/L
same,ALT Week 24 Mean (SD),"[1]; week 24, observed cases, n=23, baseline 42.6 (32.8)",36.8 (18.7) U/L
same,GGT Week 24 Mean (SD),"[1]; week 24, observed cases, n=23, baseline 70.1 (64.0)",97.5 (77.7) U/L
same,Platelets Week 24 Mean (SD),"[1]; week 24, observed cases, n=23, baseline 155.5 (72.5)",147.9 (63.2) 1 × 10^9/L
same,MELD score Week 24 Mean (SD),"[1]; week 24, post-hoc, n=21, baseline 7.7 (1.9)",7.2 (1.8)
same,patients with ALT elevations requiring dose adjustments,"[2]; core study, patients with cirrhosis",five
same,patients with ALT elevations requiring dose adjustments,[2]; [6],seven
same,patients with study withdrawal associated with ALT elevations,[2]; [6],three
same,patients with adverse events (AEs),"[2]; core study, with cirrhosis",10
same,patients with increased ALT and GGT levels (each),"[2]; core study, with cirrhosis",three
same,patients with increased AST levels,"[2]; core study, with cirrhosis",four
same,patients with adverse events (AEs),"[2]; core study, without cirrhosis",12
same,patients with increased ALT and GGT levels (each),"[2]; core study, without cirrhosis",five
same,patients with increased AST levels,"[2]; core study, without cirrhosis",four
same,patients with tremor (AE),"[2]; core study, without cirrhosis",four
same,patients with SAEs possibly related to WTX101,"[2]; extension phase, cirrhosis group, neutropenia, hepatolenticular degeneration",two
same,patients who experienced AEs,[2]; [7],nine
same,patients with urinary tract infection,[2]; [7],four
same,patients who experienced AEs,"[2]; extension phase, without cirrhosis",six
same,liver function,"[2]; up to 48 weeks, patients with and without cirrhosis",stable
same,ALT elevations requiring dose adjustments,"[2]; week 24 to week 48, regardless of cirrhosis status",no ALT elevations requiring dose adjustments occurred
same,patients with severe adverse events (SAEs),"[2]; weeks 0-48, with cirrhosis",four
same,patients with severe adverse events (SAEs),"[2]; weeks 0-48, without cirrhosis",six
